This note sets out measurements from patent US8193184B2, “Substituted sulphonamides, process for their preparation, pharmaceutical composition comprising thereof and their use” (Unimed Pharma, SPOL, S.R.O., priority 2007, dated 2012).

“And” between values parts separate entries of the source, which are not always exact repeats. Identical values can stand only once. Counter-ions that a name gives are not always drawn.

One data set deals with intraocular pressure. The data set is described as follows: Intraocular pressure changes in vivo after application into the conjunctiva sac (Tono-Pen XL). Also on record: species or system rabbit (Chinchilla). To be noted: for Measured intraocular pressure values, RE, 0.5 h / Measured intraocular pressure values, RE, 0.5 h, Average / Measured intraocular pressure values, RE, 1 h, Average / Measured intraocular pressure values, RE, 1 h / Measured intraocular pressure values, RE, 4 h, Average / Measured intraocular pressure values, RE, 4 h / Measured intraocular pressure values, RE, 7 h, Average / Measured intraocular pressure values, RE, 7 h / Measured intraocular pressure values, RE, 25 h, Average / Measured intraocular pressure values, RE, 25 h / Measured intraocular pressure values, RE, 31 h, Average / Measured intraocular pressure values, RE, 31 h: treated right eye. Here is the method:
The basic pharmacologic profile of the compounds of the general formula (I), which was focused on the determination of the intraocular pressure changes, was evaluated in in vivo conditions. In addition to the main potential therapeutic effect, related side responses were also monitored. In the experiments the laboratory animals of chinchilla species were used, because the normotension eye of this animal species provides the best reactivity. Adult male Chinchilla (in the age of one to one and half year), of 2000-3500 g, examined by veterinarian, without disease symptoms, grown under the standard conditions was used as the animal model. The solutions of tested compounds of the general formula (I) were always freshly prepared. The distilled water was used as a control. Measurement apparatus Tono-Pen®XL from Medtronic XOMED was used for measurement of the intraocular pressure. The intraocular pressure values were expressed in mmHg. At the first day of the experiment the solutions of the tested compounds of the general formula (I) were applied twice a day, specifically at 8.00 a.m. and 2.00 p.m. At the second day of the experiment the application was still in the 30th hour (i.e. at the second day at 2.00 p.m.). The solution of each compound was always applied in an amount of 2 drops into the right conjunctiva sac. The left eye served as a control. Into the conjunctiva sac of this eye (left), the same number of drop (2 drops) of distilled water was applied. The distilled water served as placebo. […] Standard requirements were kept in all measurements. The measurements started in the morning at 7.00 a.m. The measurement was accomplished with Tono-Pen® XL apparatus by soft perpendicular touch of the probe to the cornea of the rabbit five times successively. The measurement was accomplished on the both cornea (right and left eyes) before administration of the sample. Thus the normal values of the intraocular pressure for both the right and left eyes were obtained. Then at 8.00 a.m. 2 drops of tested compound were applied in the right eye and 2 drops of the distilled water were applied in the left eye. Further measurements were carried out after half an hour (at 8.30 a.m.), after one hour (at 9.00 a.m.), after four hours (at 12.00), after seven hours (at 3.00 p.m.), after 25 hours (on the second day at 9.00 a.m.) and after 31 hours from the application in the right eye (on the second day at 3.00 p.m). […] Moreover, 2 drops of the tested compound in the right eye and 2 drops of distilled water in the left eye were applied again in the same group of the rabbits in the first day at 2.00 p.m. (i.e. 6 hours after application of the first dose of the compound) and in the second day of the experiment at 2.00 p.m. (i.e. in the 30th hour of the experiment). Thus the changes caused by the repeated administration of the compound can be monitored. For each compound and each concentration 10 independent assays were carried out.

For the compound `CCN(CC)CCCNC(=O)c1ccc(S(N)(=O)=O)cc1` (as salt: ammonium) [II-4, 4-Sulfamoyl-N—(N,N-diethylaminopropyl)benzamide], the melting point (in general, the temperature, or range, at which the solid turns liquid) fell in the range of 122 to 123 °C.

Take `NS(=O)(=O)c1ccc(S(=O)(=O)NCCCN2CCOCC2)cc1` [Compound I-6, N-(Morpholinopropyl)benzene-1,4-bis(sulphonamide)]: the “Measured intraocular pressure values, RE, 0.5 h” value was 7 mmHg (2×) and 8 mmHg and 9 mmHg (4×) and 11 mmHg and 12 mmHg and 15 mmHg in the data set with intraocular pressure (I-6 2% solution, 2 drops, 0.5 h after application, individual animals n 1-10, RE average before application (N) 12.9); 11 mmHg (2×) and 10 mmHg (3×) and 12 mmHg (2×) and 9 mmHg (2×) and 16 mmHg in the data set on intraocular pressure (I-6 2.5% solution, 2 drops, 0.5 h, individual animals n 1-10, N RE average 15.3). Besides, the “Measured intraocular pressure values, RE, 0.5 h, Average” value in the data set with intraocular pressure (I-6 2%, 0.5 h, average of 10, N RE average 12.9) came to 9.6 mmHg; in the data set with intraocular pressure (I-6 2.5%, 0.5 h, average of 10, N RE average 15.3), 11 mmHg. Moreover, the “Measured intraocular pressure values, RE, 1 h, Average” value with intraocular pressure (I-6 2%, 1 h, average of 10, N RE average 12.9) was found to be 10.3 mmHg; in the data set on intraocular pressure (I-6 2.5%, 1 h, average of 10, N RE average 15.3), 10.5 mmHg. For the same compound, the “Measured intraocular pressure values, RE, 1 h” value was 9 mmHg (3×) and 8 mmHg (2×) and 14 mmHg and 11 mmHg and 10 mmHg and 13 mmHg and 12 mmHg with intraocular pressure (I-6 2%, 1 h, individual animals, N RE average 12.9); 10 mmHg (2×) and 9 mmHg (5×) and 13 mmHg and 16 mmHg and 11 mmHg in the data set on intraocular pressure (I-6 2.5%, 1 h, individual animals, N RE average 15.3). Further, the “Measured intraocular pressure values, RE, 4 h, Average” value in the data set on intraocular pressure (I-6 2%, 4 h, average of 10, N RE average 12.9) is reported as 8.4 mmHg; in the data set with intraocular pressure (I-6 2.5%, 4 h, average of 10, N RE average 15.3), 10.1 mmHg. Further, the “Measured intraocular pressure values, RE, 4 h” value in the data set with intraocular pressure (I-6 2%, 4 h, individual animals, N RE average 12.9) is 6 mmHg and 8 mmHg (3×) and 9 mmHg and 12 mmHg (2×) and 7 mmHg (3×); with intraocular pressure (I-6 2.5%, 4 h, individual animals, N RE average 15.3) it was 8 mmHg and 9 mmHg (3×) and 11 mmHg (3×) and 10 mmHg (2×) and 13 mmHg. The “Measured intraocular pressure values, RE, 7 h, Average” value was found to be 7.3 mmHg in the data set with intraocular pressure (I-6 2%, 7 h (second dose at 6 h), average of 10, N RE average 12.9) and 9.6 mmHg in the data set on intraocular pressure (I-6 2.5%, 7 h (second dose at 6 h), average of 10, N RE average 15.3). Also, the “Measured intraocular pressure values, RE, 7 h” value in the data set with intraocular pressure (I-6 2%, 7 h (second dose at 6 h), individual animals, N RE average 12.9) was 8 mmHg (3×) and 10 mmHg (2×) and 5 mmHg (2×) and 6 mmHg (2×) and 7 mmHg; with intraocular pressure (I-6 2.5%, 7 h (second dose at 6 h), individual animals, N RE average 15.3), 9 mmHg (4×) and 8 mmHg (2×) and 10 mmHg and 11 mmHg and 16 mmHg and 7 mmHg. The “Measured intraocular pressure values, RE, 25 h, Average” value is reported as 10.7 mmHg in the data set with intraocular pressure (I-6 2%, 25 h, average of 10, N RE average 12.9) and 13 mmHg in the data set with intraocular pressure (I-6 2.5%, 25 h, average of 10, N RE average 15.3). Further, the “Measured intraocular pressure values, RE, 25 h” value with intraocular pressure (I-6 2%, 25 h, individual animals, N RE average 12.9) is 9 mmHg (4×) and 12 mmHg (4×) and 15 mmHg and 8 mmHg; in the data set on intraocular pressure (I-6 2.5%, 25 h, individual animals, N RE average 15.3), 12 mmHg (3×) and 13 mmHg (3×) and 15 mmHg (2×) and 14 mmHg and 11 mmHg. For the same compound, the “Measured intraocular pressure values, RE, 31 h, Average” value in the data set with intraocular pressure (I-6 2%, 31 h (dose at 30 h), average of 10, N RE average 12.9) came out at 10.4 mmHg; in the data set with intraocular pressure (I-6 2.5%, 31 h (dose at 30 h), average of 10, N RE average 15.3), 11.2 mmHg. Also, the “Measured intraocular pressure values, RE, 31 h” value with intraocular pressure (I-6 2%, 31 h (dose at 30 h), individual animals, N RE average 12.9) is 10 mmHg (2×) and 9 mmHg (3×) and 11 mmHg (2×) and 13 mmHg and 8 mmHg and 14 mmHg; with intraocular pressure (I-6 2.5%, 31 h (dose at 30 h), individual animals, N RE average 15.3), 9 mmHg (4×) and 10 mmHg (2×) and 16 mmHg and 13 mmHg and 15 mmHg and 12 mmHg.

Take `NS(=O)(=O)c1ccc(C(=O)NCCCN2CCOCC2)cc1` [II-6, 4-Sulfamoyl-N-(morpholinopropyl)benzamide]: in the data set on intraocular pressure (II-6 1% solution, 2 drops, treated right eye (PO), 0.5 h, individual animals n 1-10, N PO average 15.8), the “Measured intraocular pressure values, PO, 0.5 h” value is 8 mmHg and 11 mmHg (2×) and 10 mmHg (3×) and 9 mmHg (2×) and 14 mmHg (2×). In the data set with intraocular pressure (II-6 1%, treated right eye (PO), 0.5 h, average of 10, N PO average 15.8), the “Measured intraocular pressure values, PO, 0.5 h, Average” value turned out to be 10.6 mmHg. Moreover, the “Measured intraocular pressure values, PO, 1 h, Average” value with intraocular pressure (II-6 1%, treated right eye (PO), 1 h, average of 10, N PO average 15.8) is on record as 10.4 mmHg. Besides, the “Measured intraocular pressure values, PO, 1 h” value in the data set on intraocular pressure (II-6 1%, treated right eye (PO), 1 h, individual animals, N PO average 15.8) was 7 mmHg and 10 mmHg (3×) and 14 mmHg and 9 mmHg and 8 mmHg and 12 mmHg (3×). Moreover, the “Measured intraocular pressure values, PO, 4 h, Average” value in the data set with intraocular pressure (II-6 1%, treated right eye (PO), 4 h, average of 10, N PO average 15.8) is 9.6 mmHg. Further, the “Measured intraocular pressure values, PO, 4 h” value in the data set with intraocular pressure (II-6 1%, treated right eye (PO), 4 h, individual animals, N PO average 15.8) was 12 mmHg and 10 mmHg and 9 mmHg and 11 mmHg (2×) and 8 mmHg (3×) and 6 mmHg and 13 mmHg. The “Measured intraocular pressure values, PO, 7 h, Average” value in the data set on intraocular pressure (II-6 1%, treated right eye (PO), 7 h (second dose at 6 h), average of 10, N PO average 15.8) is on record as 9.1 mmHg. Further, the “Measured intraocular pressure values, PO, 7 h” value with intraocular pressure (II-6 1%, treated right eye (PO), 7 h (second dose at 6 h), individual animals, N PO average 15.8) is 8 mmHg (2×) and 9 mmHg (3×) and 11 mmHg and 6 mmHg (2×) and 13 mmHg and 12 mmHg. Moreover, the “Measured intraocular pressure values, PO, 25 h, Average” value in the data set on intraocular pressure (II-6 1%, treated right eye (PO), 25 h, average of 10, N PO average 15.8) is recorded as 13.7 mmHg. Further, the “Measured intraocular pressure values, PO, 25 h” value in the data set with intraocular pressure (II-6 1%, treated right eye (PO), 25 h, individual animals, N PO average 15.8) is 13 mmHg (3×) and 16 mmHg (2×) and 18 mmHg and 12 mmHg (4×). In addition, the “Measured intraocular pressure values, PO, 31 h, Average” value in the data set on intraocular pressure (II-6 1%, treated right eye (PO), 31 h (dose at 30 h), average of 10, N PO average 15.8) was found to be 11.1 mmHg. Besides, the “Measured intraocular pressure values, PO, 31 h” value in the data set on intraocular pressure (II-6 1%, treated right eye (PO), 31 h (dose at 30 h), individual animals, N PO average 15.8) was 10 mmHg (3×) and 12 mmHg (2×) and 9 mmHg (2×) and 11 mmHg and 14 mmHg (2×).
